# Measurements: PMC4425608 (Pharmaceutical research, 2014)
# “Also recorded” adds a separate entry of the source. Where two headings read alike, the source gives them in different places.
# What was measured:
# GHB uptake in KNRK cells = assay: Inhibition of [3H]GHB uptake in KNRK cells; type: cell-based; conditions: rat KNRK cells
# MCT2 = conditions: expressed in Xenopus laevis oocytes; cited from earlier work
# MCT4 = conditions: expressed in Xenopus laevis oocytes; cited from earlier work
# [1] = Pharmacokinetics of AR-C155858 in rats following intravenous administration; conditions: 0.1, 1, and 5 mg/kg i.v. bolus
# [2] = rats, mean (SD), cited from earlier work
# [3] = system: GHB-induced respiratory depression; conditions: rats, mean (SD), cited from earlier work
# [4] = GHB blood-brain partitioning at steady state; conditions: rats; GHB 400 mg/kg i.v. bolus + 208 mg/kg/h i.v. infusion alone; 4 h; mean ± SD
# [5] = Oral GHB toxicokinetics with and without AR-C155858
# [6] = rats, cited from earlier work
# [7] = GHB 1500 mg/kg i.v. bolus alone
# [8] = male, Sprague-Dawley, rat, plasma, po, 1500 mg/kg
# [9] = rats, GHB 1500 mg/kg oral gavage alone, mean (SD)
smiles,measurement,setting,value
"Cc1n[nH]c(C)c1Cc1sc2c(c1C(=O)N1C[C@H](O)CO1)c(=O)n(C)c(=O)n2CC(C)C [AR-C155858, 6-[(3,5-Dimethyl-1H-pyrazol-4-yl)methyl]-5-[[(4S)-4-hydroxy-2-isoxazolidinyl]carbonyl]-3-methyl-1-(2-methylpropyl)thieno[2,3-d]pyrimidine-2,4(1H,3H)-dione]",pre-incubation time giving maximal inhibition of GHB uptake,"GHB uptake in KNRK cells; 100 nM AR-C155858, pre-incubation 0-60 min",30 min
same,concentration giving maximal inhibition of GHB uptake,GHB uptake in KNRK cells; 30 min pre-incubation,100 nM
same,reversibility of inhibition of GHB uptake after washing the cells,"GHB uptake in KNRK cells; 30 min pre-incubation with 100 nM, washed 3 times",not to be rapidly reversible
same,inhibition of GHB uptake,"GHB uptake in KNRK cells; linear trend in inhibition up to 30 nM, 30 min pre-incubation",70%
same,inhibition of MCT2,MCT2,potently inhibited; also recorded: can also inhibit
same,inhibition of MCT4,MCT4,no inhibition; also recorded: does not inhibit
same,AR-C155858 plasma concentration-time profile,[1],biexponential decline and dose-proportional pharmacokinetics
"O=C(O)CCCO [GHB, γ-hydroxybutyric acid]",GHB AUC,[2]; GHB 200 mg/kg i.v. bolus alone,26.2 (0.90) mg.min/ml
same,GHB CLR (renal clearance),[2]; GHB 200 mg/kg i.v. bolus alone,0.44 (0.20) ml/min/kg
same,GHB CLT (total clearance),[2]; GHB 200 mg/kg i.v. bolus alone,7.60 (0.29) ml/min/kg
same,GHB urinary recovery,[2]; GHB 200 mg/kg i.v. bolus alone,5.90 (2.86) %
same,GHB AUC,[2]; GHB 600 mg/kg i.v. bolus alone,102 (12.4) mg.min/ml
same,GHB CLR (renal clearance),[2]; GHB 600 mg/kg i.v. bolus alone,1.68 (0.75) ml/min/kg
same,GHB urinary recovery,[2]; GHB 600 mg/kg i.v. bolus alone,27.3 (9.77) %
same,GHB AUC,[2]; [7],288 (39.8) mg.min/ml
same,GHB CLT (total clearance),[2]; [7],5.16 (0.70) ml/min/kg
same,GHB urinary recovery,[2]; [7],61.1 (5.02) %
same,"AUEC, area under the effect curve for breathing frequency",[3]; GHB 200 mg/kg i.v. bolus alone,2243 (1508) breaths
same,"Emax, maximum effect on breathing frequency",[3]; GHB 200 mg/kg i.v. bolus alone,51.9 (8.51) breaths/ min
same,"Td, duration of effect on breathing frequency",[3]; GHB 200 mg/kg i.v. bolus alone,113 (60.6) min
same,"AUEC, area under the effect curve for breathing frequency",[3]; GHB 600 mg/kg i.v. bolus alone,7987 (1228) breaths
same,"Emax, maximum effect on breathing frequency",[3]; GHB 600 mg/kg i.v. bolus alone,29.5 (6.94) breaths/ min
same,"Td, duration of effect on breathing frequency",[3]; GHB 600 mg/kg i.v. bolus alone,153 (12.5) min
same,"AUEC, area under the effect curve for breathing frequency",[3]; [7],12505 (1995) breaths
same,"Emax, maximum effect on breathing frequency",[3]; [7],15.6 (7.05) breaths/ min
same,"Td, duration of effect on breathing frequency",[3]; [7],281 (72.8) min
same,"Cbrain, brain GHB concentration at steady-state",[4],0.22 ± 0.03 mg/g
same,"Cplasma, plasma GHB concentration at steady-state",[4],0.87 ± 0.05 mg/mL
same,CL/F,[5]; [8],6.52 mL/min/kg
same,Cmax,[5]; [8],659 µg/mL
same,CL renal,"[5]; male, Sprague-Dawley, rat, urine and plasma, po, 1500 mg/kg",1.82 mL/min/kg
same,GHB AUC,[5]; [9],233 (30.0) mg.min/ml
same,GHB urinary excretion,[5]; [9],28.2 (10.1) %
C[C@H](O)C(=O)O [L-lactate],effect on GHB extracellular fluid concentrations in the frontal cortex,"[6]; higher doses, plasma steady state L-lactate concentrations ≈ 4–5 mM",decreased
same,effect on GHB extracellular fluid concentrations in the frontal cortex,"[6]; lower doses, plasma steady state L-lactate concentrations ≈ 1–2 mM",no significant effect
